From publication PMC12136037, “Type II kinase inhibitors that target Parkinson’s disease–associated LRRK2” (Science Advances, 2025)

How the values were obtained:
Experiment in all cases: DSF 100 kinase selectivity screen;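 note: compound tested at 20 µM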
Format in all cases: binding
[1] = molecular target: T1, ~100 representative kinases (Homo sapiens, UniProt P68400); details: Protein CK2A1; average of three replicates
T1 construct: Recombinant protein kinase domains with a concentration of 2 μM
Outline: (§1)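 Each kinase domain, at 2 μM, is mixed with 20 μM test compound and SYPRO Orange in Hepes (20 mM, pH 7.5) with 500 mM NaCl. Temperature is then raised at 3°C/min and fluorescence-monitored unfolding yields the melting temperature change, ΔTm in degrees Celsius.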

[2] = molecular target: T2, ~100 representative kinases (Homo sapiens, UniProt Q9H2X6); details: protein HIPK2; average of three replicates
T2 construct: Recombinant protein kinase domains with a concentration of 2 μM
Outline: as §1

[3] = molecular target: T3, ~100 representative kinases (Homo sapiens, UniProt P29317); details: Protein EPHA2; average of three replicates
T3 construct: Recombinant protein kinase domains with a concentration of 2 μM
Outline: as §1

[4] = molecular target: T4, ~100 representative kinases (Homo sapiens, UniProt P49137); details: protein MAPKAPK2; average of three replicates
T4 construct: Recombinant protein kinase domains with a concentration of 2 μM
Outline: as §1

[5] = molecular target: T5, ~100 representative kinases (Homo sapiens, UniProt P19784); details: Protein CK2A2; average of three replicates
T5 construct: Recombinant protein kinase domains with a concentration of 2 μM
Outline: as §1

[6] = molecular target: T6, ~100 representative kinases (Homo sapiens, UniProt Q8TF76); details: protein GSG2; average of three replicates
T6 construct: Recombinant protein kinase domains with a concentration of 2 μM
T6 sequence (Q8TF76 1-798): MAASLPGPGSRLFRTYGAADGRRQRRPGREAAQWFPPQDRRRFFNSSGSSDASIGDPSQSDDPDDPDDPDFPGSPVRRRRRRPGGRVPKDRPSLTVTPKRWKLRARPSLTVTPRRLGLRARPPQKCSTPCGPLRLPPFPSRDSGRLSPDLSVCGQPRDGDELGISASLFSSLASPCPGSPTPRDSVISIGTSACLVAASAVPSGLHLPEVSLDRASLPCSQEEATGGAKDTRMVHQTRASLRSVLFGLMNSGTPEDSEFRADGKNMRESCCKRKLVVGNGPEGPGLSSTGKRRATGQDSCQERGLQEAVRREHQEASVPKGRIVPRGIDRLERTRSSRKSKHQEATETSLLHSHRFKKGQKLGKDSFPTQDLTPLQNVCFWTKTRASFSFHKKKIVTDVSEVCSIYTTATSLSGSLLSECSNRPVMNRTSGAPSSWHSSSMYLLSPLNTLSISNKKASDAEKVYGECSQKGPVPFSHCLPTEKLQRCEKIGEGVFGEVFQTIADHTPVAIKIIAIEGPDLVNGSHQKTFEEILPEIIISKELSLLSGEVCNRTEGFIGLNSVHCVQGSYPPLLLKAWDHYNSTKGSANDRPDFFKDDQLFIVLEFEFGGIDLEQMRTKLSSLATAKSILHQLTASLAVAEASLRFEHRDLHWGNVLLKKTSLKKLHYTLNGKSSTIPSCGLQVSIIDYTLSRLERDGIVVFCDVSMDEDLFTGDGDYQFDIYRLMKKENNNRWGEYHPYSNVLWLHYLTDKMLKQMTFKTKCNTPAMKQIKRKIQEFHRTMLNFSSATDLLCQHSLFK
Outline: as §1

[7] = molecular target: T7, ~100 representative kinases (Homo sapiens, UniProt Q12866); details: protein MERTK; average of three replicates
T7 construct: Recombinant protein kinase domains with a concentration of 2 μM
T7 sequence (Q12866 21-999): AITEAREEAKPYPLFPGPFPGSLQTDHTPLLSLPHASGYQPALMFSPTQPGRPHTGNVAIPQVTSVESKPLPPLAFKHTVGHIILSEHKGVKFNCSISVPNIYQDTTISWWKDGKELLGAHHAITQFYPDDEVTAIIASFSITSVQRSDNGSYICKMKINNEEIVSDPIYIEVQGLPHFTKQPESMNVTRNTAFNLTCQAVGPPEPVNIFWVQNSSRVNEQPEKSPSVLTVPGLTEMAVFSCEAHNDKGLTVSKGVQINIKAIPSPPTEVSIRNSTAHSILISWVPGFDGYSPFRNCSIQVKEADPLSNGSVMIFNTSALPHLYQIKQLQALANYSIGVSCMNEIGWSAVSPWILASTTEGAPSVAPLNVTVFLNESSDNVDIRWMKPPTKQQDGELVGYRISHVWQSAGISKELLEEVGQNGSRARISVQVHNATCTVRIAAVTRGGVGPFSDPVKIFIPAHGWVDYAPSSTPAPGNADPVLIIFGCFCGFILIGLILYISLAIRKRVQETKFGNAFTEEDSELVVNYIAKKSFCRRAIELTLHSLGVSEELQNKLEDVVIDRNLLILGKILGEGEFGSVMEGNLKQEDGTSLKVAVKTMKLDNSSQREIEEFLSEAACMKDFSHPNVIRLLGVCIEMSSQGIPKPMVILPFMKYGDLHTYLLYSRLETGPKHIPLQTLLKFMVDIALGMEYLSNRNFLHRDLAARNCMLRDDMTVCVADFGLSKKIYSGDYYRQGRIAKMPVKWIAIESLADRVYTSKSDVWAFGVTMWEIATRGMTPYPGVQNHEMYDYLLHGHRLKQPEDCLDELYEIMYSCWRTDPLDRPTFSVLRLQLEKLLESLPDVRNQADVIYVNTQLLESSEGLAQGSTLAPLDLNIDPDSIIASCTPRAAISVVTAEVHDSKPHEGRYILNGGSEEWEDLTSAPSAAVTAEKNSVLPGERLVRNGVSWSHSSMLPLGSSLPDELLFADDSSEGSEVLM
Outline: as §1

[8] = molecular target: T8, ~100 representative kinases (Homo sapiens, UniProt Q13557); details: Protein CAMK2D; average of three replicates
T8 construct: Recombinant protein kinase domains with a concentration of 2 μM
Outline: as §1

[9] = molecular target: T9, ~100 representative kinases (Homo sapiens, UniProt P54764); details: Protein EPHA4; average of three replicates
T9 construct: Recombinant protein kinase domains with a concentration of 2 μM
Outline: as §1

[10] = molecular target: T10, ~100 representative kinases (Homo sapiens, UniProt O75582); details: Protein RPS6KA5; DSF; average of three replicates
T10 construct: Recombinant protein kinase domains with a concentration of 2 μM
Outline: as §1

[11] = molecular target: T11, ~100 representative kinases (Homo sapiens, UniProt Q9NSY1); details: Protein BMP2K; average of three replicates
T11 construct: Recombinant protein kinase domains with a concentration of 2 μM
Outline: as §1

T9 sequence (P54764 20-986): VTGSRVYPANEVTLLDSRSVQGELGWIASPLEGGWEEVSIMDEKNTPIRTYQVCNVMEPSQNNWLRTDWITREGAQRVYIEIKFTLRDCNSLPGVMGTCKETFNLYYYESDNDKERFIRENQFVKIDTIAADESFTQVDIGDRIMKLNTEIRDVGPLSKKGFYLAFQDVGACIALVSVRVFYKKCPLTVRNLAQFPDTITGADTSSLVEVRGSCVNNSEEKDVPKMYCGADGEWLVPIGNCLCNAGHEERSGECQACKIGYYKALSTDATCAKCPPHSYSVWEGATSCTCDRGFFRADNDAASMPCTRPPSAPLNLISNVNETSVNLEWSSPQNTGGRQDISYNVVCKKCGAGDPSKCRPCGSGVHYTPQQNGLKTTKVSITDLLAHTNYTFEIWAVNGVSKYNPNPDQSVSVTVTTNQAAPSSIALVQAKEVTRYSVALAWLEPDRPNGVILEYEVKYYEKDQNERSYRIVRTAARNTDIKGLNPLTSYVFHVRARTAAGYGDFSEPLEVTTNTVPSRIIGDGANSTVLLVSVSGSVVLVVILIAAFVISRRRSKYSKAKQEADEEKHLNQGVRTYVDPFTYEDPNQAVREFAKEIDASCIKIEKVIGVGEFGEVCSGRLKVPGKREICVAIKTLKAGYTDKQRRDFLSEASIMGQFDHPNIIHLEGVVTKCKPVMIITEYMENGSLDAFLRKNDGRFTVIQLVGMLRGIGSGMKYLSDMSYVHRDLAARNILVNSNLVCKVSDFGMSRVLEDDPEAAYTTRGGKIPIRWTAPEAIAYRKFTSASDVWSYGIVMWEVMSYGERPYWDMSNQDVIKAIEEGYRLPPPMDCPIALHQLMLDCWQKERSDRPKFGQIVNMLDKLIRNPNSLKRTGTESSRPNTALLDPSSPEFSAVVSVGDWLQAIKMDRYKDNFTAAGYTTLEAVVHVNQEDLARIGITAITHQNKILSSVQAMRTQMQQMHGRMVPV
T5 sequence (P19784 whole entry, the tested form may be a part): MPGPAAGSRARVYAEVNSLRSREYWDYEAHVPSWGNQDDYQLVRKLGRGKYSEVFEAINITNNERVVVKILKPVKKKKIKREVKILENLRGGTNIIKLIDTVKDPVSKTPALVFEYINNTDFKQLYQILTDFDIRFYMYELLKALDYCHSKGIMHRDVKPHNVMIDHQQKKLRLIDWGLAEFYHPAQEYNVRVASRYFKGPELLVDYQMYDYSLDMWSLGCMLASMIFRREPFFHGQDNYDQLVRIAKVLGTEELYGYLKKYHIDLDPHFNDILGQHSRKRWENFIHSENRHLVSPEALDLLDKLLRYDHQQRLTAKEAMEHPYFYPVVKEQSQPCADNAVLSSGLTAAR
T1 sequence (P68400 whole entry, the tested form may be a part): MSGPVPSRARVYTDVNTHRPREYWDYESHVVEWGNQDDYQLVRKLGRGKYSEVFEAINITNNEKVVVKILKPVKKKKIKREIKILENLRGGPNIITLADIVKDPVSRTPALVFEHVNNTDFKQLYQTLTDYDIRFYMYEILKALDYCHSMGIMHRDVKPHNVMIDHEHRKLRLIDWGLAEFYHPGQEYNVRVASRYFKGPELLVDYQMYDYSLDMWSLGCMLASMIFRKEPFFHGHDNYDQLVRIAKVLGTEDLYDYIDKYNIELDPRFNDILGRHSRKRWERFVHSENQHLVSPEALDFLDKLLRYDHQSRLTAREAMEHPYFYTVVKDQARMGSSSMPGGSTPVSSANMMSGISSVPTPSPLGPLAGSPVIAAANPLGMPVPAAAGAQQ
T2 sequence (Q9H2X6 whole entry, the tested form may be a part): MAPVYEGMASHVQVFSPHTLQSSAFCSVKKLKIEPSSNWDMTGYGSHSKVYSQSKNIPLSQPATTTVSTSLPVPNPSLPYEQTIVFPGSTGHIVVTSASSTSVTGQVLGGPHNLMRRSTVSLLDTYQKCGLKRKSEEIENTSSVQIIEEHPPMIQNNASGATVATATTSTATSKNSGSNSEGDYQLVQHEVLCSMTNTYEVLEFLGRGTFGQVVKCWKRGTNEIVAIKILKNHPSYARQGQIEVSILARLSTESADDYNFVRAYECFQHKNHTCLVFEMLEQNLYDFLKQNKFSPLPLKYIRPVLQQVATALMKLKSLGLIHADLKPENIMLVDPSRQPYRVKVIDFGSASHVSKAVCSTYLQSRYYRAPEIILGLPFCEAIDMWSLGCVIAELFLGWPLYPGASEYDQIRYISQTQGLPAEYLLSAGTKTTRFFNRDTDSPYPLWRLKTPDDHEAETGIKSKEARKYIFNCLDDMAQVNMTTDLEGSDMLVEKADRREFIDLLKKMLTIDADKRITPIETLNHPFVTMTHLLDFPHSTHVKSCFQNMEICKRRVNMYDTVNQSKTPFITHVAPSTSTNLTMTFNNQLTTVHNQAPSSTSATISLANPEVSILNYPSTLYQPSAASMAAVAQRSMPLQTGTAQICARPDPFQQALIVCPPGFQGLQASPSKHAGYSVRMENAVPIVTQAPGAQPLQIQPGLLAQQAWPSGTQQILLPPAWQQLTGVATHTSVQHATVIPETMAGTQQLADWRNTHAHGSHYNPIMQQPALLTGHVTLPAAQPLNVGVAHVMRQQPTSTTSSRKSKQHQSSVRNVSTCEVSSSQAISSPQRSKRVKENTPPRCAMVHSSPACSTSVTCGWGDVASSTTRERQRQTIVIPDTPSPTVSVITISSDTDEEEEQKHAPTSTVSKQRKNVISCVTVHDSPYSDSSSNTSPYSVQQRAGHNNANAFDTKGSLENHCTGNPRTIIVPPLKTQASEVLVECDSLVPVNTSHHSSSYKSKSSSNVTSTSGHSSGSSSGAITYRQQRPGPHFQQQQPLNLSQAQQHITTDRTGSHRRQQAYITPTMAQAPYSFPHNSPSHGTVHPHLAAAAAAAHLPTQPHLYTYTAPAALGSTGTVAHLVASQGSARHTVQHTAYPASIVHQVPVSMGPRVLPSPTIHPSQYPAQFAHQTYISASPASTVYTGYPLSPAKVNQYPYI
T11 sequence (Q9NSY1 whole entry, the tested form may be a part): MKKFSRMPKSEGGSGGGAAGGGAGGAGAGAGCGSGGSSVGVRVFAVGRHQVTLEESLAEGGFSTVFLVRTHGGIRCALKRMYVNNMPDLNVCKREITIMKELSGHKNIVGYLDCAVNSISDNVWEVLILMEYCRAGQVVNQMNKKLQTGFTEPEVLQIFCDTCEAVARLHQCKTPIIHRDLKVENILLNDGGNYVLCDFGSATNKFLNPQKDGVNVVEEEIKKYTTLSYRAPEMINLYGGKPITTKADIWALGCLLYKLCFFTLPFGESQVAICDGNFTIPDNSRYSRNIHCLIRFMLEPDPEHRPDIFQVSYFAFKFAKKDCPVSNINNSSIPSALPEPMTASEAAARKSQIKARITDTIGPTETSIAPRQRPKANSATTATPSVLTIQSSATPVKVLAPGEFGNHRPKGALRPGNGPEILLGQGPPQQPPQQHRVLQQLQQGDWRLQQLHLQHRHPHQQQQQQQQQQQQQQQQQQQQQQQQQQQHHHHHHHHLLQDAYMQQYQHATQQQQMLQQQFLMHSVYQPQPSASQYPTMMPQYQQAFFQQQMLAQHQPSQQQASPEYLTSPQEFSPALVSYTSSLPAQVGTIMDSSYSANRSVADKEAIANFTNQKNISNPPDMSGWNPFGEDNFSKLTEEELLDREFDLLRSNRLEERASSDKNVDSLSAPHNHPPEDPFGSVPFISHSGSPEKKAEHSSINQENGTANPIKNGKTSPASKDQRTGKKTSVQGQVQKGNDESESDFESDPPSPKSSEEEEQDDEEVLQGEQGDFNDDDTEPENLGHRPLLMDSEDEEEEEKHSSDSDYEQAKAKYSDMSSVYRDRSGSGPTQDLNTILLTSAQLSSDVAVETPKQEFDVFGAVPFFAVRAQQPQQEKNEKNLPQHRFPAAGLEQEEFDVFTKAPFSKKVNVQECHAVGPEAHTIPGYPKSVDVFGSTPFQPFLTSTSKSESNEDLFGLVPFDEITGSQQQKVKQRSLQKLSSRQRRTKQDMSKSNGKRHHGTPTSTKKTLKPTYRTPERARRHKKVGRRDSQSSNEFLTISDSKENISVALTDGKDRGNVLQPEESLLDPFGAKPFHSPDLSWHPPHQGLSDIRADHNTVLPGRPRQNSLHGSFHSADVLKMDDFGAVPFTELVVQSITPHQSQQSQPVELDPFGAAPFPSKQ
T4 sequence (P49137 whole entry, the tested form may be a part): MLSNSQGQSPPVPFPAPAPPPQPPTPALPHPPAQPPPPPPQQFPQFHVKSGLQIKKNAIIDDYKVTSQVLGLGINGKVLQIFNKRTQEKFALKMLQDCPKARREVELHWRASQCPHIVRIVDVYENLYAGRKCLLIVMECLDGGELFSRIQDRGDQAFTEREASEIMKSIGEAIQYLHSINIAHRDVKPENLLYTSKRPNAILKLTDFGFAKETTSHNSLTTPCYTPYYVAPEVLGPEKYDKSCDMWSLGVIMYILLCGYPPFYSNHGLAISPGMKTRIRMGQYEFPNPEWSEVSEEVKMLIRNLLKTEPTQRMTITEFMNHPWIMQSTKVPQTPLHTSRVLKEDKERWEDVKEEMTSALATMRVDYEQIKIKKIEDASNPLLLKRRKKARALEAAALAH
T8 sequence (Q13557 whole entry, the tested form may be a part): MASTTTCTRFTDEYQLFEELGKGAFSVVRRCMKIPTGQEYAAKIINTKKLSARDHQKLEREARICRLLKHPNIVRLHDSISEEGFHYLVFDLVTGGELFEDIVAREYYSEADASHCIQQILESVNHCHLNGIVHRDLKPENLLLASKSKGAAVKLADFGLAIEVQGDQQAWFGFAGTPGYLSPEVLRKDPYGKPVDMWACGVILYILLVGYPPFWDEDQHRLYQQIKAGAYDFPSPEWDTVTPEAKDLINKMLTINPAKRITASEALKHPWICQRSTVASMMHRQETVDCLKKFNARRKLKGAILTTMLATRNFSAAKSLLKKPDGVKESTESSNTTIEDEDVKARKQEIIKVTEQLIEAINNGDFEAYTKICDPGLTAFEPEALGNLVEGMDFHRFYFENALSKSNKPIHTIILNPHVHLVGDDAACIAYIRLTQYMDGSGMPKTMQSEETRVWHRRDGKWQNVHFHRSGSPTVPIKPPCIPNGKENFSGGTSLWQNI

SMILES: O=C(Nc1cccc(-c2c[nH]c3ncnc(N4CCOCC4)c23)c1)C1(C(=O)Nc2ccc(F)c(F)c2)CC1 [Compound 17]
- dTm [1]: -0.81 K
- dTm [2]: 9.54 K
- dTm [3]: 4.47 K
- dTm [4]: -0.12 K
- dTm [5]: 8.40 K
- dTm [6]: -3.87 K
- dTm [7]: 1.34 K
- dTm [8]: 0.36 K
- dTm [9]: 1.24 K
- dTm [10]: 6.14 K
- dTm [11]: 7.72 K

SMILES: O=C(Nc1cccc(-c2c[nH]c3ncnc(N4CCOCC4)c23)c1)C1(C(=O)Nc2ccc(F)c(Cl)c2)CC1 [Compound 18]
- dTm [1]: -0.75 K
- dTm [2]: 10.76 K
- dTm [3]: 4.93 K
- dTm [4]: 0.22 K
- dTm [5]: 1.36 K
- dTm [6]: -3.25 K
- dTm [7]: 1.59 K
- dTm [8]: 0.66 K
- dTm [9]: 1.94 K
- dTm [10]: -1.56 K
- dTm [11]: 8.58 K

SMILES: O=C(Nc1cccc(-c2c[nH]c3ncnc(N4CCOCC4)c23)c1)C1(C(=O)Nc2ccc(F)c(Br)c2)CC1 [Compound 19]
- dTm [1]: 0.10 K
- dTm [2]: 2.50 K
- dTm [3]: 4.87 K
- dTm [4]: -0.94 K
- dTm [5]: 7.91 K
- dTm [6]: -2.45 K
- dTm [7]: 2.86 K
- dTm [8]: 1.25 K
- dTm [9]: 1.78 K
- dTm [10]: 6.08 K
- dTm [11]: 8.80 K

SMILES: Cc1cc(NC(=O)C2(C(=O)Nc3cccc(-c4c[nH]c5ncnc(N6CCOCC6)c45)c3)CC2)ccc1F [Compound 20]
- dTm [1]: -0.56 K
- dTm [2]: 11.54 K
- dTm [3]: 6.64 K
- dTm [4]: -0.28 K
- dTm [5]: 1.33 K
- dTm [6]: -3.30 K
- dTm [7]: 2.15 K
- dTm [8]: 0.24 K
- dTm [9]: 3.23 K
- dTm [10]: 7.70 K
- dTm [11]: 8.74 K

SMILES: COc1cc(NC(=O)C2(C(=O)Nc3cccc(-c4c[nH]c5ncnc(N6CCOCC6)c45)c3)CC2)ccc1F [Compound 21]
- dTm [1]: 1.43 K
- dTm [2]: 9.11 K
- dTm [3]: 2.31 K
- dTm [4]: -0.29 K
- dTm [5]: 3.16 K
- dTm [6]: -2.20 K
- dTm [7]: 0.18 K
- dTm [8]: -0.00539 K
- dTm [9]: 0.24 K
- dTm [10]: 4.31 K
- dTm [11]: 6.71 K

SMILES: CC(C)(C)c1cccc(NC(=O)C2(C(=O)Nc3cccc(-c4c[nH]c5ncnc(N6CCOCC6)c45)c3)CC2)c1 [Compound 22]
- dTm [1]: -1.17 K
- dTm [2]: 3.44 K
- dTm [3]: 3.30 K
- dTm [4]: -0.67 K
- dTm [5]: 2.45 K
- dTm [6]: -2.85 K
- dTm [7]: 2.25 K
- dTm [8]: 0.84 K
- dTm [9]: 2.71 K
- dTm [10]: 1.50 K
- dTm [11]: 4.67 K

SMILES: O=C(Nc1cccc(-c2c[nH]c3ncnc(N4CCOCC4)c23)c1)C1(C(=O)Nc2ccc(F)cc2F)CC1 [Compound 23]
- dTm [1]: -0.33 K
- dTm [2]: 6.30 K
- dTm [3]: 4.60 K
- dTm [4]: -0.35 K
- dTm [5]: 1.02 K
- dTm [6]: -2.84 K
- dTm [7]: 0.52 K
- dTm [8]: 0.16 K
- dTm [9]: 1.15 K
- dTm [10]: 0.48 K
- dTm [11]: 7.18 K

SMILES: Cc1cc(F)ccc1NC(=O)C1(C(=O)Nc2cccc(-c3c[nH]c4ncnc(N5CCOCC5)c34)c2)CC1 [Compound 24]
- dTm [1]: 0.65 K
- dTm [2]: 4.12 K
- dTm [3]: 3.46 K
- dTm [4]: -0.55 K
- dTm [5]: -0.63 K
- dTm [6]: -2.81 K
- dTm [7]: 0.66 K
- dTm [8]: -0.18 K
- dTm [9]: 0.68 K
- dTm [10]: -1.10 K
- dTm [11]: 6.47 K

SMILES: O=C(Nc1cccc(-c2c[nH]c3ncnc(N4CCOCC4)c23)c1)C1(C(=O)Nc2cc(Br)c(F)cc2F)CC1 [Compound 25]
- dTm [1]: -3.68 K
- dTm [2]: 1.71 K
- dTm [3]: 1.14 K
- dTm [4]: 0.00186 K
- dTm [5]: 1.70 K
- dTm [6]: -3.43 K
- dTm [7]: 1.84 K
- dTm [8]: 1.32 K
- dTm [9]: 1.97 K
- dTm [10]: 0.35 K
- dTm [11]: 6.63 K
